Consider six substances from PMC6562704, “Antihypertensive Effect in Vivo of QAGLSPVR and Its Transepithelial Transport Through the Caco-2 Cell Monolayer” (Marine Drugs, 2019).

For data set [1], the target named is angiotensin-I-converting enzyme (ACE). The settings on record: in vitro; read-out: IC50 for ACEI activity in vitro; cited from earlier work. An excerpt:
In our previous studies, enzymatic hydrolysates of tilapia skin gelatin were obtained using simulated gastrointestinal digestion. The hydrolysates were isolated and purified, and QAGLSPVR was obtained by successive chromatography of the gelatin hydrolysates. […] The present study aims to confirm the in vivo antihypertensive effect of QAGLSPVR by using the SHR model. […] Bioactive peptides are exposed through systemic circulation in human tissues. Unfortunately, bioactive peptides may be hydrolyzed before they reach the target tissues during passage through and absorption by the small intestine. […] For example, FKGRYYP was identified from ch ...

In another data set the test system is SHRs. The settings on record: cited from earlier work. An excerpt:
Bioactive peptides are exposed through systemic circulation in human tissues. Unfortunately, bioactive peptides may be hydrolyzed before they reach the target tissues during passage through and absorption by the small intestine. […] For example, FKGRYYP was identified from ch ...

The subject of data set [2] is Caco-2 cell monolayer. Put plainly: Transepithelial transport through the Caco-2 cell monolayer. It is filed as in vitro ADME, human. On the procedure: Caco-2 cells (1 × 10^5 cells/well) were routinely cultured in Dublecco’s modified Eagle’s medium with 15% FBS, […] streptomycin and 100 U/mL penicillin. Caco-2 cell monolayer was cultured in six-well Transwell plastic plates in a humidified incubator with 5% CO2 at 37 °C and Caco-2 cell monolayer can be used to perform transport experiments when the transepithelial resistance is higher than 400 Ω/cm^2 [29]. The Caco-2 cell culture medium was substituted with Hank’s balanced salt solution (HBSS) buffer (preheated at 37 °C for 30 min) prior to the transport experiment. The cell monolayer was cultured in HBSS buffer and maintained at 37 °C for 2 h. QAGLSPVR (2 mg/mL, 1.5 mL, dissolved in HBSS) was added to the AP of the cell monolayer, while HBSS buffer (2.5 mL) was added to the BL. The Caco-2 cell monolayer was cultured for 0.5, 1, or 2 h in an incubator at 37 °C. The AP and BL fractions were collected at different times. QAGLSPVR concentrations in the BL were detected by UPLC-Q-Orbitrap-MS^2 analysis according to our previous method, and the transport percentages of QAGLSPVR at different times were calculated.
The transport patterns of QAGLSPVR through the Caco-2 cell monolayer were studied using different transport inhibitors and enhancers. In brief, Gly-Sar, wortmannin, and cytochalasin D were dissolved in DMSO (final concentration of DMSO in HBSS = 0.05%) and final concentrations of25 mM, 500 nM, and 0.5 μg/mL, respectively. The Caco-2 cell monolayer was pre-incubated with Gly-Sar (a peptide transporter PepT1 substrate), wortmannin (atranscytosis inhibitor), or cytochalasin D (a TJ disruptor)for 30 min followed by addition of 1.5 mL of 2 mg/mL QAGLSPVR to the AP and 2.5 mL of fresh HBSS to the BL. After 2 h of incubation, the QAGLSPVR content in the BL was determined via UPLC-Q-Orbitrap-MS^2 analysis according to our previous method, and transport percentages were calculated.

The subject of data set [3] is Caco-2 cell monolayer. The conditions noted are these: cited from earlier work. On the procedure: QAGLSPVR was proven to produce a clear antihypertensive effect on SHRs in this study. To validate whether QAGLSPVR could be completely absorbed to regulate blood pressure, the transport percentage of QAGLSPVR was evaluated via the Caco-2 cell monolayer model. Caco-2 cells can be used as an in vitro model of the human intestinal epithelium due to the various brush border membrane enzymes characterizing these cells. At least eight membrane enzymes are expressed by Caco-2 cells. The brush border membrane enzymes are membrane peptidases and can hydrolyze peptides into short fragments prior ...

Ends that are not written are not given here.

Usually IC50 stands for the concentration needed to halve the response being measured. “FKGRYYP [peptide identified from chicken muscle hydrolysates]”: the IC50 in data set [1] is 550 µM. Besides, the “antihypertensive activity after oral administration to SHRs (in words)” value with SHRs is “no antihypertensive activity”.

For the substance QAGLSPVR [QAGLSPVR], the “effect of cytochalasin D on QAGLSPVR transport (in words)” value with Caco-2 cell monolayer [2] (Caco-2, AP to BL, 30 min pre-incubation with 0.5 μg/mL cytochalasin D (TJ disruptor), 2 mg/mL peptide, HBSS, 2 h, UPLC-Q-Orbitrap-MS^2, p < 0.05) is listed as “significantly increased”. For the same substance, in the data set with Caco-2 cell monolayer [2] (Caco-2, AP to BL, 30 min pre-incubation with 500 nM wortmannin (transcytosis inhibitor), 2 mg/mL peptide, HBSS, 2 h, UPLC-Q-Orbitrap-MS^2, p > 0.05), the “effect of wortmannin on QAGLSPVR transport (in words)” value is recorded as “did not significantly affect”. Besides, the “effect of Gly-Sar on QAGLSPVR transport (in words)” value with Caco-2 cell monolayer [2] (Caco-2, AP to BL, 30 min pre-incubation with 25 mM Gly-Sar (PepT1 substrate), 2 mg/mL peptide, HBSS, 2 h, UPLC-Q-Orbitrap-MS^2, p > 0.05) was “no significant effect”. Also, the “integrity on transport through the Caco-2 cell monolayer (in words)” value with Caco-2 cell monolayer [2] (Caco-2 monolayer, AP to BL, HBSS, 2 mg/mL, 37 °C, 0.5-2 h, UPLC-Q-Orbitrap-MS^2) is listed as “transported intact”. This substance also registered a transport percentage in the data set with Caco-2 cell monolayer [2] (Caco-2 monolayer, AP to BL, six-well Transwell, transepithelial resistance > 400 Ω/cm^2, HBSS, 2 mg/mL peptide (1.5 mL) in AP, 2.5 mL HBSS in BL, 37 °C, 2 h, UPLC-Q-Orbitrap-MS^2, mean ± SD) of 3.5%.

On to QIGLF, for which the “absorption through the Caco-2 cell monolayer (in words)” value with Caco-2 cell monolayer [3] is recorded as “absorbed intact”.

In the case of RKQLQGVN, the “absorption through the Caco-2 cell monolayer (in words)” value with Caco-2 cell monolayer [3] is on record as “absorbed intact”.

TNGIIR: the “absorption through the Caco-2 cell monolayer (in words)” value in the data set on Caco-2 cell monolayer [3] is listed as “absorbed intact”.

In the case of YLGYLEQ, in the data set with Caco-2 cell monolayer [3], the “absorption through the Caco-2 cell monolayer (in words)” value is listed as “absorbed intact”.
